Test results reported in paper PMC11546786, “Designing Analogs of SAAP-148 with Enhanced Antimicrobial and Anti-LPS Activities” (International Journal of Molecular Sciences, 2024).

Assays:
[1] = Reversed-phase HPLC retention time as measure of peptide hydrophobicity; assay type: physicochemical; details: retention time by reverse-phase HPLC, reflects hydrophobicity difference between analogues
Source text: The physicochemical parameters crucial for the antimicrobial activity of AMPs have been identified, encompassing net charge, helicity, hydrophobicity, and amphipathicity. The hydropathicity, mean relative hydrophobic moment, and charge of peptides were predicted using the HeliQuest (https://heliquest.ipmc.cnrs.fr/ (accessed on 12 March 2024)). Lysine is a hydrophilic amino acid, and its substitution leads to a decrease in the hydrophobicity of the SAAP-148 analogue. The anticipated results are consistent, with the degree of reduction in […] varying depending on the position at which lysine is substituted (Table 2). The amphipathicity of the peptides, as denoted by the μH (mean relative hydrophobic moment), is elaborated on in Table 2. The hydrophobic moment of SAAP-148 analogues was decreased except for SAAP-10, which is on account of the substitution occurring on the18th residue. (Figure 1) The 18th residue of SAAP-148 is glutamine, a polar amino acid residue, located at the junction of the hydrophobic and hydrophilic surfaces of the SAAP-148 α-helix. […] The retention time data determined by reversed-phase high-performance liquid chromatography (RP-HPLC) reflects the hydrophobicity difference between peptide analogues. It is well documented that the formation of a hydrophobic-binding domain due to peptide secondary structure can affect peptide interactions with reversed-phase matrices. This effect was observed particularly for amphipathic α-helical peptides. Given this preferred binding domain, amphipathic α-helical peptides are considerably more retentive than non-amphipathic peptides with the same amino acid composition.
This phenomenon was particularly evident in the case of amphipathic α-helical peptides. […] This discrepancy may be attributed to the lack of a well-defined α-helical structure in SAAP-148 and its analogues (Figure S1).

[2] = tested on: Gram-negative bacteria (E. coli, P. aeruginosa, K. pneumoniae); assay: Geometric mean of MICs against Gram-negative bacteria; assay type: cell-based; design: unit not given here
Experimental: (§1) The antibacterial activities of the peptides against […] were evaluated using a modified version of the Clinical Laboratory and Standards Institute (CLSI) broth microdilution method, as previously described. Briefly, the bacteria were cultured in liquid LB medium (comprising 10 g/L tryptone, 5 g/L yeast extract, and 10 g/L NaCl) at 37 °C until reaching mid-log phase. Subsequently, the bacterial concentration was adjusted to 1 × 10^6 colony-forming units (CFU)/mL. The peptides were then diluted serially with phosphate-buffered saline (PBS), followed by the addition of 50 μL of the diluted peptides to 50 μL of the bacterial suspension in a 96-well plate (Corning Inc., Lowell, MA, USA). After incubating at 37 °C for 18 to 20 h, the absorbance of each well was measured using a multi-well microplate reader (SpectraMax M5; Molecular Devices, Sunnyvale, CA, USA) at 600 nm.

[3] = tested on: Gram-positive bacteria (S. aureus, S. epidermidis); assay: Geometric mean of MICs against Gram-positive bacteria; assay type: cell-based; design: unit not given here
Experimental: as §1

[4] = tested on: five bacterial strains; assay: MICs against all five bacterial strains (geometric mean, range); assay type: cell-based; design: unit not given here; details: geometric mean of MICs against all five bacterial strains
Experimental: as §1

[5] = tested on: BEAS-2B cells; assay: Membrane damage, PI staining and flow cytometry; assay type: cell-based; details: 6.25 μM peptide, 1 × 10^6 cells, 37 °C, 30 min, flow cytometry
Experimental: (§2) Propidium iodide (PI) was utilized as a marker for assessing the structural integrity of cell membranes and the occurrence of cell death. The impact of peptides on BEAS-2B cells, E. coli, and S. aureus was investigated by treating the cells with peptides followed by PI staining and flow cytometry (FACS) analysis to evaluate peptide-induced membrane damage. Table 5 presents the results of PI staining in BEAS-2B cells (1 × 10^6) following treatment with peptides at a concentration of 6.25 μM. […] FACS analysis at a peptide concentration of 6.25 μM was employed to determine the membrane damage caused by peptides in E. coli and S. aureus cells (Table 5).
(§3) Peptide-induced membrane damage was evaluated by quantifying the influx of propidium iodide (PI). BEAS-2B cells (1 × 10^6 cells in 50 μL) were exposed to a final concentration of 6.25 μM peptide and incubated at 37 °C for 30 min, followed by PBS washing and re-suspension in PI solution (dissolved in PBS) at a final concentration of 2 μg/mL. Bacteria were cultured to mid-log phase at 37 °C, then diluted to an OD600 of 0.5 in phosphate-buffered saline (PBS). […] The bacteria were harvested and re-suspended in PI solution, with fluorescence signal analysis conducted using flow cytometry (Cytomics FC 500, Beckman Coulter, Indianapolis, IN, USA).

[6] = tested on: E. coli; assay: Membrane damage, PI staining and flow cytometry; assay type: cell-based, Escherichia coli; details: 6.25 μM peptide, OD600 0.5 in PBS, 37 °C, 30 min, flow cytometry
Experimental: as §2, §3

[7] = tested on: S. aureus; assay: Membrane damage, PI staining and flow cytometry; assay type: cell-based, Staphylococcus aureus; details: 6.25 μM peptide, OD600 0.5 in PBS, 37 °C, 30 min, flow cytometry
Experimental: as §2, §3

[8] = CD spectra, secondary structure by BeStSel; assay type: physicochemical; details: 30 μM SDS as printed, 100 μM peptide, 25 °C
Experimental: CD spectra (Figure S1) were acquired using a JASCO J-1500 spectropolarimeter (JASCO Inc., Easton, MD, USA) in 0.1 cm pathlength cells under nitrogen at 25 °C. The spectra were recorded in the range of 190 to 250 nm at a peptide concentration of 100 μM in SDS. Secondary structure was determined using the BeStSel server. Hydropathicity, mean relative hydrophobic moment, and charge of peptides were predicted using the HeliQuest (https://heliquest.ipmc.cnrs.fr/ (accessed on 12 March 2024)). The 3D structure of SAAP-148 and its analogues (Figure S2) was predicted using PEP-FOLD4 servers (https://bioserv.rpbs.univ-paris-diderot.fr/services/PEP-FOLD4/ (accessed on 19 June 2024)).

CC[C@H](C)[C@H](NC(=O)[C@H](CCCCN)NC(=O)[C@H](CCC(=O)O)NC(=O)[C@H](CCCCN)NC(=O)[C@H](CO)NC(=O)[C@H](CCCCN)NC(=O)[C@H](CCCNC(=N)N)NC(=O)[C@H](Cc1ccccc1)NC(=O)[C@H](Cc1ccccc1)NC(=O)[C@H](CC(=O)O)NC(=O)CNC(=O)[C@H](CC(C)C)NC(=O)[C@@H](N)CC(C)C)C(=O)NCC(=O)N[C@@H](CCCCN)C(=O)N[C@@H](CCC(=O)O)C(=O)N[C@@H](Cc1ccccc1)C(=O)N[C@@H](CCCCN)C(=O)N[C@@H](CCCNC(=N)N)C(=O)N[C@H](C(=O)N[C@H](C(=O)N[C@@H](CCC(N)=O)C(=O)N[C@@H](CCCNC(=N)N)C(=O)N[C@H](C(=O)N[C@@H](CCCCN)C(=O)N[C@@H](CC(=O)O)C(=O)N[C@@H](Cc1ccccc1)C(=O)N[C@@H](CC(C)C)C(=O)N[C@@H](CCCNC(=N)N)C(=O)N[C@@H](CC(N)=O)C(=O)N[C@@H](CC(C)C)C(=O)N[C@H](C(=O)N1CCC[C@H]1C(=O)N[C@@H](CCCNC(=N)N)C(=O)N[C@H](C(=O)N[C@@H](CCC(=O)O)C(=O)N[C@@H](CO)C(=O)O)[C@@H](C)O)C(C)C)[C@@H](C)CC)C(C)C)[C@@H](C)CC [LL-37, reference compound]
Rt [1]: 11.125 min | GM to G− [2]: 12.49 | GM to G+ [3]: 100 | MIC (GM) [4]: 28.72 | proportion of PI-positive cells, BEAS-2B [5]: 31.2% | proportion of PI-positive cells, E. coli [6]: 78.9% | proportion of PI-positive cells, S. aureus [7]: 46.9% | Others [8]: 0% | Turn [8]: 0% | α-Helix [8]: 100% | β-Antiparallel [8]: 0% | β-Parallel [8]: 0%
